Assay results: patent US20210401859A1, “METHODS OF TREATING CANCER IN BIOMARKER-IDENTIFIED PATIENTS WITH NON-COVALENT INHIBITORS OF CYCLIN-DEPENDENT KINASE 7 (CDK7)” (Syros Pharmaceuticals, Inc., priority 2018, published 2021)

How the values were obtained:
[1] = system: ST390 (modeling pancreatic ductal adenocarcinoma (PDAC)); experiment: TGI in PDAC PDX model ST390; type: in vivo, NOD/SCID mice; conditions: 6 mg/kg QD, PO, vehicle ~1,250 mm^3
Description: In the PDAC model, Compound 101 was orally administered to tumor-bearing NOD/SCID mice at 6 mg/kg QD. […] The % regression was calculated as: (Mean TV Compound 101 @ EOT)/(Mean TV Compound 101 @ Day 0)×100. The same calculations were used for end of study (day 42).

[2] = system: BR5010, LU5178, OV15398 PDX models; experiment: TGI in PDX models BR5010 (TNBC), LU5178 (SCLC), OV15398 (HGSOC); type: in vivo, NOD/SCID mice; conditions: TNBC 10 mg/kg QD or 5 mg/kg BID, HGSOC 3 mg/kg BID, PO 21 days, 21 days follow-up
[3] = system: 12 PDX models (SCLC, TNBC, HGSOC); experiment: TGI and tolerability in 12 PDX models of SCLC, TNBC and HGSOC; type: in vivo
[4] = Plasma exposure on repeated daily dosing in mice; type: in vivo; conditions: repeated daily dosing at therapeutic doses in mice (1-6 mg/kg)
[5] = system: ovarian and breast tumor xenografts; experiment: Daily oral dosing in ovarian and breast tumor xenografts; type: in vivo

CC1(C)CC[C@H](Nc2ncc(C(F)(F)F)c(-c3c[nH]c4c(P(C)(C)=O)c(C#N)ccc34)n2)CN1 [Compound 101, (S)-7-(dimethylphosphoryl)-3-(2-((6,6-dimethylpiperidin-3-yl)amino)-5-(trifluoromethyl)pyrimidin-4-yl)-1H-indole-6-carbonitrile]
tumor volume at day 21 [1]: about 250 mm^3
TGI (in words) [2]: deep and sustained TGI, including regressions
TGI at the end of the 21-day dosing period, all models ([3]; 6 or 10 mg/kg QD or 3 or 5 mg/kg BID PO, all 12 models): at least 50%
body weight loss / tolerability ([3]; all once-daily doses tested, tumor-bearing mice): no evident body weight loss
tumor regrowth after treatment discontinuation ([3]; subset 7/12 models, 21 days after treatment discontinuation): no evidence of tumor regrowth
TGI of deep responses in a subset of models ([3]; subset of models (58%, 7/12), TGI or regression): > 95%
plasma exposures [4]: dose proportional without accumulation
pharmacodynamic responses in xenograft tumor tissue ([5]; correlated with TGI): rapid (4 hours) and sustained (24 hours) dose-dependent pharmacodynamic responses
TGI (in words) ([5]; daily oral dosing): dose-dependent TGI
lowest dose at which tumor regression was observed ([5]; daily oral dosing): one-fifth of MTD
